{
  "source": "patent US7786136B2",
  "about": "“Indazole-carboxamide compounds” (Theravance, Inc., priority 2004, dated 2010)",
  "experiment": "Pharmacokinetic study in the rat",
  "format": "in vivo",
  "method": "Pharmacokinetic Study in the Rat\nAqueous solution formulations of test compounds were prepared in 0.1% lactic acid at a pH of between about 5 and about 6. Male Sprague-Dawley rats (CD strain, Charles River Laboratories, Wilmington, Mass.) were dosed with test compounds via intravenous administration (IV) at a dose of 2.5 mg/kg or by oral gavage (PO) at a dose of 5 mg/kg. The dosing volume was 1 mL/kg for IV and 2 mL/kg for PO administration. Serial blood samples were collected from animals pre-dose, and at 2 (IV only), 5, 15, and 30 min, and at 1, 2, 4, 8, and 24 hours post-dose. Concentrations of test compounds in blood plasma were determined by liquid chromatography-mass spectrometry analysis (LC-MS/MS) (MDS SCIEX, API 4000, Applied Biosystems, Foster City, Calif.) with a lower limit of quantitation of 1 ng/mL.\nStandard pharmacokinetic parameters were assessed by non-compartmental analysis (Model 201 for IV and Model 200 for PO) using WinNonlin (Version 4.0.1, Pharsight, Mountain View, Calif.). The maximum in the curve of test compound concentration in blood plasma vs. time is denoted Cmax. The area under the concentration vs. time curve from the time of dosing to the last measurable concentration (AUC(0-t)) was calculated by the linear trapezoidal rule. Oral bioavailability (F(%)), i.e. the dose-normalized ratio of AUC(0-t) for PO administration to AUC(0-t) for IV administration, was calculated as: F(%)=AUCPO/AUCIV×DoseIV/DosePO×100%",
  "key": {"[1]": {"conditions": "male Sprague-Dawley rats, blood plasma, IV 2.5 mg/kg or PO 5 mg/kg"}},
  "data": [
    {"smiles": "CC(C)n1nc(C(=O)N[C@H]2C[C@H]3CC[C@@H](C2)N3CC(O)CN2CCN(C(=O)C3CCCO3)CC2)c2ccccc21", "note": "(stereo partly drawn) [Example 2, 1-isopropyl-1H-indazole-3-carboxylic acid((1S,3R,5R)-8-{2-hydroxy-3-[4-(tetrahydrofuran-2-carbonyl)piperazin-1-yl]propyl}-8-aza-bicyclo[3.2.1]oct-3-yl)amide]", "values": [
      {"measurement": "AUC(0-t)", "setting": "[1]", "result": 427, "unit": "ng·h/mL"},
      {"measurement": "Cmax", "setting": "[1]", "result": 55, "unit": "ng/mL"},
      {"measurement": "oral bioavailability (F(%))", "setting": "rat, dose-normalized AUC(0-t) PO 5 mg/kg vs IV 2.5 mg/kg", "result": "about 30%"}
    ]}
  ]
}
